ChEMBL document CHEMBL5500361, “Probing benzenesulfonamide-thiazolidinone hybrids as multitarget directed ligands for efficient control of type 2 diabetes mellitus through targeting the enzymes: α-glucosidase and carbonic anhydrase II” (Eur J Med Chem, 2024)

What was measured:
Carbonic anhydrase 12 = Carbonic anhydrase 12 (Homo sapiens, UniProt O43570)
Description: Binding affinity to human carbonic anhydrase 12 assessed as inhibition constant incubated for 15 mins by phenol red based stopped-flow CO2 hydration assay

Carbonic anhydrase 2 [1] = biological target: T1, Carbonic anhydrase 2 (Homo sapiens, UniProt P00918)
Description: Binding affinity to human carbonic anhydrase 2 assessed as inhibition constant incubated for 15 mins by phenol red based stopped-flow CO2 hydration assay

Carbonic anhydrase 1 = Carbonic anhydrase 1 (Homo sapiens, UniProt P00915)
Description: Binding affinity to human carbonic anhydrase 1 assessed as inhibition constant incubated for 15 mins by phenol red based stopped-flow CO2 hydration assay

Carbonic anhydrase 9 = Carbonic anhydrase 9 (Homo sapiens, UniProt Q16790)
Description: Binding affinity to human carbonic anhydrase 9 assessed as inhibition constant incubated for 15 mins by phenol red based stopped-flow CO2 hydration assay

Carbonic anhydrase 2 [2] = biological target: T1, Carbonic anhydrase 2; remark: listed apart in the source
Description: Binding affinity to human recombinant carbonic anhydrase 2 assessed as inhibition constant incubated for 15 mins by phenol red based stopped-flow CO2 hydration assay

MCF7 [3] = assay: Antiproliferative activity against human MCF7 cells assessed as inhibition of cell growth under normoxia condition by MTT colorimetric assay
MCF7 [4] = assay: Antiproliferative activity against human MCF7 cells assessed as inhibition of cell growth under hypoxia condition by MTT colorimetric assay

Sequence of Carbonic anhydrase 12 (O43570 whole entry): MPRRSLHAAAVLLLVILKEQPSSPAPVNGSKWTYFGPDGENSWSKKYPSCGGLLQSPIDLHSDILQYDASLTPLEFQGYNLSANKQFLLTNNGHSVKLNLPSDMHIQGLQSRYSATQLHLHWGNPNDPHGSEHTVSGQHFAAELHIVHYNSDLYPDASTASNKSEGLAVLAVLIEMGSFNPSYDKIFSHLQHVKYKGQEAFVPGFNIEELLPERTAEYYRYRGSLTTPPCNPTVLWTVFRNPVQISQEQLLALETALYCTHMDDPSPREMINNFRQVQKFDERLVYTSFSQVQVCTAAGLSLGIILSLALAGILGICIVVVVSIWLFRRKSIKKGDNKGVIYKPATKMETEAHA
Sequence of Carbonic anhydrase 1 (P00915 whole entry): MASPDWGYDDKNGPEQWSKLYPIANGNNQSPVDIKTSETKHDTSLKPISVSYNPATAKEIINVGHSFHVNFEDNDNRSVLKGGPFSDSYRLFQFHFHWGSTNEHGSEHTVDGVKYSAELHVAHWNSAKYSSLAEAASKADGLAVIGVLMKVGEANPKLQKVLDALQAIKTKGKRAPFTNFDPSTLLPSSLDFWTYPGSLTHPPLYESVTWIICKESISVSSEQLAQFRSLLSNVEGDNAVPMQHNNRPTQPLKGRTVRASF

Structure (SMILES)	Ki (Carbonic anhydrase 12)	Ki (Carbonic anhydrase 2 [1])	also measured
NS(=O)(=O)c1ccc(/N=C2\NC(=O)/C(=C\c3ccccc3)S2)cc1	120 nM	90.5 nM	–
CN1C(=O)/C(=C\c2ccccc2)S/C1=N/c1ccc(S(N)(=O)=O)cc1	74.5 nM	44.5 nM	–
NS(=O)(=O)c1ccc(/N=C2\NC(=O)/C(=C\c3ccc(Cl)cc3)S2)cc1	–	95.7 nM	–
CCN1C(=O)/C(=C2\C(=O)Nc3ccccc32)S/C1=N/c1ccc(S(N)(=O)=O)cc1	9.1 nM	105 nM	–
NS(=O)(=O)c1ccc(/N=C2\NC(=O)/C(=C3\C(=O)Nc4ccccc43)S2)cc1	33.5 nM	23 nM	Ki (Carbonic anhydrase 1): 631 nM; Ki (Carbonic anhydrase 9): 47 nM
NS(=O)(=O)c1ccc(N2C(=O)CS/C2=N\C(=O)c2ccccc2)cc1	–	–	Ki (Carbonic anhydrase 2 [2]): 0.41 nM
CCN1C(=O)/C(=C\c2ccc(Cl)cc2)S/C1=N/c1ccc(S(N)(=O)=O)cc1	36.3 nM	30.5 nM	–
CCN1C(=O)/C(=C\c2ccc(F)cc2)S/C1=N/c1ccc(S(N)(=O)=O)cc1	11 nM	85 nM	Ki (Carbonic anhydrase 1): 4420 nM; Ki (Carbonic anhydrase 9): 33.9 nM; IC50 (MCF7 [3]): 21600 nM; IC50 (MCF7 [4]): 34000 nM
CCN1C(=O)/C(=C\c2ccccc2)S/C1=N/c1ccc(S(N)(=O)=O)cc1	96.3 nM	77.2 nM	–
CN1C(=O)/C(=C\c2ccc(F)cc2)S/C1=N/c1ccc(S(N)(=O)=O)cc1	37 nM	30.7 nM	–
COc1ccc(/C=C2/S/C(=N/c3ccc(S(N)(=O)=O)cc3)N(C)C2=O)cc1	66.6 nM	54.6 nM	–
COc1ccc(/C=C2/S/C(=N/c3ccc(S(N)(=O)=O)cc3)NC2=O)cc1	77.6 nM	24.3 nM	–
CCN1C(=O)/C(=C\c2ccc(OC)cc2)S/C1=N/c1ccc(S(N)(=O)=O)cc1	56.6 nM	–	–
CN1C(=O)/C(=C\c2ccc(Cl)cc2)S/C1=N/c1ccc(S(N)(=O)=O)cc1	48.8 nM	–	–
NS(=O)(=O)c1ccc(/N=C2\NC(=O)/C(=C\c3ccc(F)cc3)S2)cc1	–	7 nM	–
